Test results from ChEMBL document CHEMBL3301546, “MMV Malaria Box yeast growth screening”.

What was measured:
Type in all cases: functional
[1] = system: Saccharomyces cerevisiae; test: (§1) MMV: Growth assays were conducted using the prototrophic S. cerevisiae strain JHY222. Each MMV compound (0.1 mM) was tested in rich media containing dextrose as a carbon source (Yeast Extract, Peptone, Dextrose; YPD). The growth rate in the presence of each MMV compound was calculated as follows: (i) the first 10 OD readings were averaged and subtracted from all OD readings of the corresponding curve to set the baseline of the growth curve to zero, and (ii) the area under the curve (AUC) was then calculated as the sum of all OD readings. […] A relative growth value was calculated as follows: AUC(DRUG) - AUC(DMSO)/AUC(DMSO); where AUC(DMSO) represents growth measured in a DMSO control well that was on the same microtiter plate of the drug-treated culture.
[2] = system: Saccharomyces cerevisiae; test: as §1, with “minimal” for “rich”, “Nitrogen Base,” for “Extract, Peptone,”, “YNBD).” for “YPD).”
[3] = system: Saccharomyces cerevisiae; test: as §1, with “minimal” for “rich”, “ethanol and glycerol” for “dextrose”, “as” for “as a”, “sources” for “source”, “Nitrogen Base, Ethanol, Glycerol; YNBEG).” for “Extract, Peptone, Dextrose; YPD).”

SMILES	Relative Growth [1]	Relative Growth [2]	Relative Growth [3]
CC(C)(C)c1ccc(C2CC3=Nc4ccccc4N(C(=O)c4ccccc4Cl)C(c4ccc(F)cc4)C3=C(O)C2)cc1 (configuration not stated)	-0.0874	-0.0515	-0.3538
Oc1c(CN2CCN(c3ccccc3F)CC2)cc(Br)c2cccnc12	-0.0397	0.0189	0.0379
CCC(=O)Nc1nnc(Cc2ccc(OC)c(OC)c2)s1	-0.0143	-0.019	-0.1225
COc1ccc(CN2CCN(Cc3ccccc3)CC2)c(O)c1	-0.0119	0.0478	0.0718
CCCOCc1cc(CN2CCN(c3cccc(Cl)c3)CC2)c(O)c2ncccc12	-0.0331	-0.0021	-0.1694
O=C(NCC1Cc2cccc(-c3ccncc3)c2O1)c1csc2c1CCCC2 (configuration not stated)	0.0158	0.0203	0.1029
CCCCC(O)(c1ccc(Cl)cc1)C(CN1CCOCC1)c1ccc(Cl)cc1.Cl (configuration not stated)	0.0402	-0.1088	-0.0844
Cl.Oc1ccccc1CNCC12CC3CC(CC(C3)C1)C2	-0.0154	0.0701	0.0858
CC(C)(C)C(=O)Nc1ccc(C(=O)Nc2cccc(-c3nc4ccccc4[nH]3)c2)cc1	0.0628	-0.1639	-0.4785
O=C(Nc1ccc(-c2nc3ccccc3[nH]2)cc1)c1ccc(Cl)c(Cl)c1	0.0053	0.027	0.0462
COc1ccc(C(=O)Nc2ccc(Cl)cc2C(=O)Nc2ccncc2)cc1	-0.2989	-0.1015	0.1271
CCOc1cc2c(cc1OCC)C(c1cc(OC)c(O)cc1Cl)NCC2 (configuration not stated)	-0.0054	0.0876	0.0748
CCN(CC)CCCNc1ccnc2cc3ccccc3cc12	-0.9889	0.0381	0.1561
O=C(Nc1ccc(Cl)cc1)N1CCN(c2ccc3nncn3n2)CC1	0.0021	-0.0344	0.053
COCCNC(=O)c1ccc(OC2CCN(Cc3ccc(F)c(F)c3)CC2)c(Cl)c1	0.1615	-0.0136	0.0235
COc1ccc(C(O)(CCC(C)C)C(CN2CCOCC2)c2ccc(Cl)cc2)cc1.Cl (configuration not stated)	-0.0809	-0.0398	-0.1228
N=c1c2ccccc2nnn1-c1cccc(C(F)(F)F)c1	-0.0528	-0.1559	-0.1336
CCN1CCCC1CNc1[nH]cnc2c3cc(Cl)ccc3nc1-2 (configuration not stated)	-0.0942	-0.0942	-0.3246
CC(C)(C)CC(C)(C)NCC(O)COc1ccc(Cl)cc1Cl (configuration not stated)	-0.1373	0.0104	-0.1363
CCOC(=O)c1c(C)n(-c2ccc(Cl)cc2)c2ccc(OC(=O)C=Cc3ccccc3)cc12	-0.0067	0.0402	0.0277
COc1ccccc1C(=O)ON=C(N)Cc1cccc2ccccc12	0.0139	0.0083	0.0174
COc1ccc(-c2nc3cc(Cc4ccc5[nH]c(-c6ccc(OC)cc6)nc5c4)ccc3[nH]2)cc1	-0.0264	0.0862	0.0241

SMILES	Relative Growth [1]	Relative Growth [2]	Relative Growth [3]
Oc1ccccc1CN1CCC2(CCCN(Cc3ccccc3F)C2)C1 (configuration not stated)	-0.0746	-0.0494	-0.309
COc1cccc(Nc2nc(NCCO)c3ccccc3n2)c1.Cl	0.0163	-0.0288	-0.0151
O=C(Nc1ccccc1O)c1ccc(Oc2cccc(C(=O)Nc3ccccc3O)c2)cc1	-0.023	0.0291	-0.0198
Cl.N=c1n(CCN2CCCCC2)c2ccccc2n1CC(O)c1cccc(Br)c1 (configuration not stated)	-0.0788	-0.2329	-0.5142
COc1ccc(C)c2sc(N(Cc3cccnc3)C(=O)c3ccc(C#N)cc3)nc12	-0.0087	-0.0341	0.0255
CCOc1ccc(CN2CCN(CC(O)COc3ccc(OCC(O)CN4CCN(Cc5ccc(OCC)cc5)CC4)cc3)CC2)cc1 (configuration not stated)	-0.0814	-0.1042	-0.2934
CCCCNc1nc(NC(C)(C)C)nc(NC(C)(C)C)n1	0.0174	-0.0768	-0.1542
Cc1ccc(C)c(Cn2c(N3CCC(C(=O)NCc4cccs4)CC3)nc3ccccc32)c1	-0.4893	-0.0285	-0.021
CN1CCN(c2nc(Nc3ccc(O)cc3)nc3ccccc23)CC1.Cl	-0.0029	-0.0206	-0.0432
c1ccc2c(NCCc3c[nH]c4ccccc34)c3ccccc3nc2c1	-0.7261	-0.0449	-0.0957
CC(C)CNC(=O)c1c(N)n(CCc2ccccc2F)c2nc3ccccc3nc12	0.0072	0.1192	-0.2111
CC(C)(C)c1ccc2c(c1)CN(Cc1ccc(Cl)cc1)CO2	-0.9993	-0.1149	-0.1101
Cc1ccc(N2C3c4ccccc4N(S(=O)(=O)c4ccc(C)cc4)C2c2ccccc2N3S(=O)(=O)c2ccc(C)cc2)cc1	-0.0583	-0.0282	-0.3051
CCOc1ccc(CCNC(=O)c2cccs2)cc1OCC	-1.0059	-0.7048	-0.3956
COc1cccc(NC(=O)Cn2c(C)c(C#N)c3ccccc32)c1	-0.9399	-1.0078	-1.0064
c1ccc2cc3c(Nc4ccc(N5CCOCC5)cc4)ccnc3cc2c1	0.0179	0.0841	0.2097
Oc1ccc(Br)cc1CN1CCN(Cc2ccc(Cl)cc2)CC1	0.004	-0.144	-0.4008
CCC(C)NCC(O)(c1ccc(Cl)cc1)c1ccc(Cl)cc1 (configuration not stated)	0.0173	0.042	-0.0906
CCOC(=O)c1c(C)n(-c2ccccc2)c2ccc(OC(=O)c3cc(OC)c(OC)c(OC)c3)cc12	-0.0253	-0.0133	-0.2171
OC(CNC1CCCCC1)Cn1c2ccccc2c2ccccc21 (configuration not stated)	-0.0297	0.0533	0.1093
COc1ccc2nc(C)cc(Nc3ccccc3O)c2c1	-0.0232	0.0332	-0.0329
CCOc1ccc(-c2nc(NC(=O)c3cccc(S(C)(=O)=O)c3)sc2C)cc1	0.0098	0.0499	0.1015
